In ChEMBL document CHEMBL1136593, “Design, synthesis, and discovery of 5-piperazinyl-1,2,6,7-tetrahydro-5H-azepino[3,2,1-hi]indol-4-one derivatives: a novel series of mixed dopamine D2/D4 receptor antagonist” (Bioorg Med Chem Lett, 2003) one finds Ki data, which are given here for eleven molecules.

The term Ki denotes the equilibrium dissociation constant of an inhibitor or competing ligand from its target.

The target in test [1] is T1, Adrenergic receptor alpha-1 (Rattus norvegicus, UniProt P15823+P23944+P43140).
T1 sequence (P15823 whole entry): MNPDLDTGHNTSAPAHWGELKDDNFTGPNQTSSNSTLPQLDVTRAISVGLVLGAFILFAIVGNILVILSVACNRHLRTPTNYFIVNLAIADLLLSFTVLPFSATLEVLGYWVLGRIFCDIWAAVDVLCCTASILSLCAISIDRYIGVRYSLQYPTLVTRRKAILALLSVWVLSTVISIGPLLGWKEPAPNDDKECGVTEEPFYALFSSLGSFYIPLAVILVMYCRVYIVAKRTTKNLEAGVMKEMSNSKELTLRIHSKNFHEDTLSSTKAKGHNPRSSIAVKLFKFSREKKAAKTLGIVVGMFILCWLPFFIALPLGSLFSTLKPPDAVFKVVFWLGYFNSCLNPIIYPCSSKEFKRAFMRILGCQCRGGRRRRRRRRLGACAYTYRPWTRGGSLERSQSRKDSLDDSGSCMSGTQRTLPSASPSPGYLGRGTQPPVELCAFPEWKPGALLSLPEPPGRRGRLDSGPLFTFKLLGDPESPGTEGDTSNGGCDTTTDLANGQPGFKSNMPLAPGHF
T1 sequence (P23944 whole entry): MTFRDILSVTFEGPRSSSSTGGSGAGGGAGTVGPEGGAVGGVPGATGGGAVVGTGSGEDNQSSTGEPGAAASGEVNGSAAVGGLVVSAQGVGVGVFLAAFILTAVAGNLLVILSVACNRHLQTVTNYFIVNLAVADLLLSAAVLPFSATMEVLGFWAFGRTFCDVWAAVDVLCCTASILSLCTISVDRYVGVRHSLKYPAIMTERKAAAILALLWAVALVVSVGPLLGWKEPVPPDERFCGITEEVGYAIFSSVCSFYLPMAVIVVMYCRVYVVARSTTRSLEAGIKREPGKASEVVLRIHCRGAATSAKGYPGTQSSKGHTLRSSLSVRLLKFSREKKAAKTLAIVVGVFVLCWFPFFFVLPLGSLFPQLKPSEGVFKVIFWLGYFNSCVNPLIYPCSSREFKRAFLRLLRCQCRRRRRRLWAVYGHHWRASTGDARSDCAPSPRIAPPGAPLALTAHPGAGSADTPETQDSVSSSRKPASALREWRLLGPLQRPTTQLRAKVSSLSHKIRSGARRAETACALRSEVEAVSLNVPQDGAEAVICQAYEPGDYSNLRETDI
T1 sequence (P43140 whole entry): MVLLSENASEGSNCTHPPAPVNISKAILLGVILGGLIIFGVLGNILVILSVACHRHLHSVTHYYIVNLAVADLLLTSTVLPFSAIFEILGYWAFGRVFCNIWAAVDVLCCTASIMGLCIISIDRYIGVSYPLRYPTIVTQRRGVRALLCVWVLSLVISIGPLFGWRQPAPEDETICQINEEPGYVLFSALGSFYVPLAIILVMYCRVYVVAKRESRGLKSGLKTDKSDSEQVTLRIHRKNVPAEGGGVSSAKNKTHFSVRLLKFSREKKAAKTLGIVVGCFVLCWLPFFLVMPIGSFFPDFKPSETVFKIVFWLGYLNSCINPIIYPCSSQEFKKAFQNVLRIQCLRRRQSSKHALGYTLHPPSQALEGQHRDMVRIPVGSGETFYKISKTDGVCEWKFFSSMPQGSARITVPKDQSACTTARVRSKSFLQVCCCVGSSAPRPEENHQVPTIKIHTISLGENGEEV
The experiment in a line: Displacement of [3H]prazosin from alpha-1 adrenergic receptor of rat brain homogenate. (In a radioligand displacement assay an active substance lowers the binding of a labelled ligand.)

Test [2] addresses T2, D(2) dopamine receptor (Homo sapiens, UniProt P14416). The test is described as follows: Displacement of [3H]-YM 09151 from D2 receptor.
Test [3] addresses T3, D(4) dopamine receptor (Homo sapiens, UniProt P21917).
T3 sequence (P21917 whole entry): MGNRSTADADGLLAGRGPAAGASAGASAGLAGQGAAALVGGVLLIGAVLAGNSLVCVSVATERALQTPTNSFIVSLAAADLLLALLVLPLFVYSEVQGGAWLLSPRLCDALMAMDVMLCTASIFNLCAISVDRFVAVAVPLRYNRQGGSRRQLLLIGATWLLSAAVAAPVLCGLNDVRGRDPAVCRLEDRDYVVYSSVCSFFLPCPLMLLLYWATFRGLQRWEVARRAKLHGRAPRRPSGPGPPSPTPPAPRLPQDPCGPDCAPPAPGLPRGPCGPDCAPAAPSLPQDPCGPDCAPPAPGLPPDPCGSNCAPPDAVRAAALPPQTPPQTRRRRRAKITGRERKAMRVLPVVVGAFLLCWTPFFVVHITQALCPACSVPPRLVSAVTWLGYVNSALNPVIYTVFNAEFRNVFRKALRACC
The experiment in a line: Displacement of [3H]-YM 09151 from D4 receptor.

Test [4] addresses T2, D(2) dopamine receptor. The test is described as follows: D2 receptor functional activity was measured through reversal of quinpirole inhibited, forskolin stimulated cAMP production from whole cells. Background: Changes in cAMP serve as a functional read-out for many G protein-coupled receptors.
The target in test [5] is T3, D(4) dopamine receptor. The test is described as follows: D4 receptor functional activity was measured inhibition of quinpirole stimulated [35S]GTP-gamma-S binding from cell membranes. A general note: GTPγS resists hydrolysis and so accumulates on activated G proteins.

T2 sequence (P14416 whole entry): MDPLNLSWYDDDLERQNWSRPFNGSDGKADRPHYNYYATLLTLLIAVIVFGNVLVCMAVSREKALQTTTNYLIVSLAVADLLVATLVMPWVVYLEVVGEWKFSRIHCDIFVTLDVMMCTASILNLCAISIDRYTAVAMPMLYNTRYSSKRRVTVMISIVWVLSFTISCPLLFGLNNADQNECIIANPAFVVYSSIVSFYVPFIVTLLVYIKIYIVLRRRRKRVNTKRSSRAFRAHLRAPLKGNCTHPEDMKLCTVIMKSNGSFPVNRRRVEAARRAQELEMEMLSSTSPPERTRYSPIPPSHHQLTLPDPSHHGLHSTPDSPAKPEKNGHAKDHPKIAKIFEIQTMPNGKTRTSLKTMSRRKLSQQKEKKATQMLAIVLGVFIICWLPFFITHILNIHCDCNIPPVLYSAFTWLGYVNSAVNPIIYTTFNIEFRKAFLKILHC

On to `COc1cc(C)ccc1CN1CCN(C2CCc3cccc4c3N(C2=O)C(C)(C)C4)CC1` (configuration not stated), for which the Ki worked out at 653 nM in test [1], 952 nM in test [2] and 34 nM in test [3].
For the molecule `Cc1ccc(CN2CCN(C3CCc4cccc5c4N(C3=O)C(C)C5)CC2)cc1` (configuration not stated), the Ki in test [1] was 1000 nM; in test [2], 26 nM; in test [3], 10 nM.
`CC1Cc2cccc3c2N1C(=O)C(N1CCN(Cc2ccc(Cl)cc2)CC1)CC3` (configuration not stated): the inhibition constant Ki was 1000 nM in test [1] and 139 nM in test [2].
With `COc1ccc(C)cc1CN1CCN(C2CCc3cccc4c3N(C2=O)C(C)(C)C4)CC1` (configuration not stated), the Ki in test [1] was 983 nM; in test [2] it was 313 nM; in test [3], 65 nM.
For `Cc1ccc(CN2CCN(C3CCc4cccc5c4N(CC5)C3=O)CC2)cc1` (configuration not stated), the Ki worked out at 1361 nM in test [1] and 209 nM in test [2].
Consider `Cc1ccc(CN2CCN(C3CCc4cccc5c4N(C3=O)C(C)(C)C5)CC2)cc1` (configuration not stated), for which the figures for the Ki in test [1], in test [2] and in test [3] were 490 nM, 165 nM and 12 nM, respectively.
On to `O=C1C(N2CCN(Cc3ccc(Cl)cc3)CC2)CCc2cccc3c2N1CC3` (configuration not stated), for which the inhibitory constant (Ki) in test [1] was 2284 nM; in test [4], 62 nM; in test [5], 3 nM; in test [2], 116 nM; in test [3] it was 5 nM.
With `COc1ccc(Cl)cc1CN1CCN(C2CCc3cccc4c3N(C2=O)C(C)(C)C4)CC1` (configuration not stated), the Ki in test [1] is 1056 nM; in test [2] it was 220 nM; in test [3], 29 nM.
On to `CC1(C)Cc2cccc3c2N1C(=O)C(N1CCN(Cc2ccc(Cl)cc2)CC1)CC3` (configuration not stated), for which the inhibition constant (Ki) in test [1] came out at 1735 nM.
For `CCN1C(=O)C(N2CCN(Cc3ccc(Cl)cc3)CC2)CCc2ccccc21` (configuration not stated), the Ki in test [1] came out at 2678 nM.
`CCN1C(=O)C(N2CCN(Cc3ccc(Cl)cc3)CC2)Cc2ccccc21` (configuration not stated) gave a Ki in test [1] of 1265 nM.
